According to patent US5491170A, “β-carboxy sulfonamide ACAT inhibitors” (priority 1994, dated 1996):

How the values were obtained:
[1] = tested on: male Sprague-Dawley rats; test: APCC: in vivo screen, total cholesterol in rats fed a high fat, high cholesterol diet; parameters: species or system rat (male Sprague-Dawley); conditions: Rattus norvegicus, po, 16 h, 30 mg/kg by gavage, high cholesterol diet (5.5% peanut oil, 1.5% cholesterol, 0.5% cholic acid), dosed 4 PM, sacrificed 8 AM, read-out: APCC (% change TC): percent change in total cholesterol from control animals given vehicle and diet only
From the text: In an in vivo screen designated APCC, male Sprague-Dawley rats (200-225 g body weight) were randomly divided into treatment groups and dosed at 4 PM with either vehicle (CMC/Tween) or suspensions of invention compounds in vehicle. The normal chow diet was then replaced with a high fat, high cholesterol diet (5.5% peanut oil, 1.5% cholesterol, and 0.5% cholic acid). The rats consumed this diet ad libitum during the night and were sacrificed at 8 AM to obtain blood samples for cholesterol analysis using standard procedures. Statistical differences between mean cholesterol values for the same vehicle were determined using analysis of variance followed by Fisher's least significant test. The results of this trial for representative compounds of the present invention also appear in Table I as the percent change in total cholesterol (% TC) from control animals given vehicle and diet only. All compounds in the APCC test reported in Table 1 were administered by gavage at 30 mg/kg.

[2] = biological target: T1, acyl-CoA: cholesterol acyltransferase (ACAT) (Rattus norvegicus, UniProt Q7TQM4); test: LAI: in vitro inhibition of ACAT (acylation of cholesterol by radiolabeled oleic acid) in rat liver microsomes; format: biochemical
T1 construct: tissue preparation containing rat liver microsomes (designated LAI); from tissue; host or cells: rat liver microsomes
T1 sequence (Q7TQM4 1-524): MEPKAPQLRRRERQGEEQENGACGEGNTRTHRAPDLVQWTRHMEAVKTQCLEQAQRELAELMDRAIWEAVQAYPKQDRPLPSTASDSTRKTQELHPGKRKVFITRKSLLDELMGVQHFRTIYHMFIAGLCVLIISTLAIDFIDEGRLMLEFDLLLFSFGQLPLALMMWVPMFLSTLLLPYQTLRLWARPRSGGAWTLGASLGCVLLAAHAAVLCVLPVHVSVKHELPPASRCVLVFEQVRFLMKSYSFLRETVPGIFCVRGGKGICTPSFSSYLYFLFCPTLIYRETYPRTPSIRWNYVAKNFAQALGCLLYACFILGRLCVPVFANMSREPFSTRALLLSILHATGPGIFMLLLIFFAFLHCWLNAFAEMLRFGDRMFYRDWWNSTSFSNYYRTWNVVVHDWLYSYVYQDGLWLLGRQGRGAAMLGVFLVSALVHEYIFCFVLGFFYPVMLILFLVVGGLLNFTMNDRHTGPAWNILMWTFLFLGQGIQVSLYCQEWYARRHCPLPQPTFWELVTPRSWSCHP
Experimental: The ability of representative compounds of the present invention to inhibit ACAT was measured using an in vitro test more fully described in F. J. Field and R. G. Salone, Biochemica et Biophysica Acta, 712:557-570 (1982). The test assesses the ability of a test compound to inhibit the acylation of cholesterol by oleic acid by measuring the amount of radiolabeled cholesterol oleate formed from radiolabeled oleic acid in a tissue preparation containing rat liver microsomes (designated LAI).

Row | SMILES | IC50 [2] | change in vivo at 30 mg/kg [1]
1 | CC(C)c1cc(C(C)C)c(OC(=O)CS(=O)(=O)Nc2c(C(C)C)cccc2C(C)C)c(C(C)C)c1 [Example 1, 2,4,6-Triisopropylphenyl(2,6-diisopropylphenylsulfamoyl)acetate] |  | -19%
2 | CCCCCCCCCCCCCCCCCCSC(=O)CS(=O)(=O)Nc1c(C(C)C)cccc1C(C)C [Example 18, (2,6-Diisopropylphenylsulfamoyl)-thioacetic Acid S-octadecyl Ester] | > 5 µM | -35%
3 | CCCCCCCCSC(=O)CS(=O)(=O)Nc1c(C(C)C)cccc1C(C)C [Example 11, (2,6-Diisopropylphenylsulfamoyl)-thio-acetic Acid S-octyl Ester] |  | -32%
4 | CCCCCCCCCCCCSC(=O)CS(=O)(=O)Nc1c(C(C)C)cccc1C(C)C [Example 10, (2,6-Diisopropylphenylsulfamoyl)-thio-acetic Acid S-dodecyl Ester] |  | -71%
5 | CC(C)c1cccc(C(C)C)c1NS(=O)(=O)CC(=O)N(Cc1ccccc1)C(C)C [Example 7, N-Benzyl-N-isopropyl-2-(2,6-diisopropylphenylsulfamoyl)acetamide] |  | -31%
6 | CCCCCCCCN(CCCCCCCC)C(=O)CS(=O)(=O)Nc1c(C(C)C)cccc1C(C)C [Example 3, 2-(2,6-Diisopropylphenylsulfamoyl)-N,N-dioctylacetamide] |  | -19%
7 | CCCCCCCCCCCCOC(=O)CS(=O)(=O)Nc1c(C(C)C)cccc1C(C)C [Example 29, (2,6-Diisopropylphenylsulfamoyl)-acetic Acid Dodecylester] |  | -34%
8 | CCCCCCCCCCCCCCSC(=O)CS(=O)(=O)Nc1c(C(C)C)cccc1C(C)C [Example 15, (2,6-Diisopropylphenylsulfamoyl)-thio-acetic Acid S-tetradecyl Ester] |  | -23%
9 | CCCCCCCCCCCCSC(=O)CS(=O)(=O)Nc1ccc(F)cc1F [Example 16, (2,4-Diifluorophenylsulfamoyl)-thioacetic Acid S-dodecyl Ester] | 0.23 µM | -37%
10 | CC(C)c1cccc(C(C)C)c1NC(=O)CS(=O)(=O)Nc1c(C(C)C)cccc1C(C)C [Example 4, N-(2,6-Diisopropylphenyl)-2-(2,6-diisopropylphenylsulfamoyl)-acetamide] |  | -51%
11 | CCCCCCCCCCCCC(C)OC(=O)CS(=O)(=O)Nc1c(C(C)C)cccc1C(C)C (centres unmarked) [Example 28, (2,6-Diisopropylphenylsulfamoyl)-acetic Acid 1-methyltridecyl Ester] |  | -39%
12 | CCCCCCCCCCCCn1nnc(NC(=O)CS(=O)(=O)Nc2c(C(C)C)cccc2C(C)C)n1 [Example 2, 2-(2,6-Diisopropyl-phenylsulfamoyl)-N-(dodecyl-2-H-tetrazol-5-yl)-acetamide] | 1.9 µM | -50%
13 | CCCCCCCCCCCCCCOC(=O)CS(=O)(=O)Nc1c(C(C)C)cccc1C(C)C [Example 20, (2,6-Diisopropylphenylsulfamoyl)-acetic Acid Tetradecyl Ester] |  | -45%
14 | CCCCCCCCCCCCSC(=O)CS(=O)(=O)Nc1c(OC)cc(OC)cc1OC [Example 17, (2,4,6-Trimethoxyphenylsulfamoyl)-thioacetic Acid S-dodecyl Ester] | 0.57 µM | -3%
15 | COc1cc(OC)c(NC(=O)CS(=O)(=O)Nc2c(OC)cc(OC)cc2OC)c(OC)c1 [Example 27, N-(2,4,6-trimethyoxyphenyl)-2-(2,4,6-trimethoxy-phenylsulfamoyl)-acetamide] | 7.6 µM | 5%
16 | CC(C)c1cc(C(C)C)c(NS(=O)(=O)CC(=O)Oc2c(C(C)C)cccc2C(C)C)c(C(C)C)c1 [Example 31, (2,4,6-Triisopropylphenylsulfamoyl)-acetic Acid, 2,6-Diisopropyl Ester] | > 1 µM | -29%
17 | CCCCCCCCCCCCNC(=O)CS(=O)(=O)Nc1c(C(C)C)cccc1C(C)C [Example 5, 2-(2,6-Diisopropylphenylsulfamoyl)-N-dodecyl-acetamide] |  | -29%

The next lines start with results.

Row | IC50 [2] | SMILES | change in vivo at 30 mg/kg [1]
18 | > 5 µM | CCCCCCNC(=O)CS(=O)(=O)Nc1c(C(C)C)cccc1C(C)C [Example 6, 2-(2,6-Diisopropylphenylsulfamoyl)-N-hexyl-acetamide] | -16%
19 | 4.2 µM | CC(CCc1ccccc1)COC(=O)CS(=O)(=O)Nc1c(C(C)C)cccc1C(C)C (centres unmarked) [Example 40, (2,6-diisopropylphenylsulfamoyl)-acetic acid, (2-methyl-4-phenylbutyl) ester] | -32%
20 | > 1 µM | CC(C)c1cccc(C(C)C)c1NS(=O)(=O)CC(=O)NC(c1ccccc1)c1ccccc1 [Example 8, 2-(2,6-Diisopropylphenylsulfamoyl)-N-diphenylmethylacetamide] | 
21 | > 1 µM | CCCCCCCCCCOC(=O)CS(=O)(=O)Nc1c(C(C)C)cccc1C(C)C [Example 24, (2,6-Diisopropylphenylsulfamoyl)-acetic Acid Decylester] | -16%
22 | > 1 µM | CC(C)c1cccc(C(C)C)c1NS(=O)(=O)CC(=O)O [Example 30, (2,6-Diisopropylphenylsulfamoyl)-acetic Acid] | 3%
23 | > 1 µM | CCOC(=O)CS(=O)(=O)Nc1c(C(C)C)cccc1C(C)C [Example 21, (2,6-Diisopropylphenylsulfamoyl)-acetic Acid Ethyl Ester] | 2%
24 | > 1 µM | CC(C)c1cccc(C(C)C)c1NS(=O)(=O)CC(=O)NCC(c1ccccc1)C1CCCC1 (centres unmarked) [Example 9, 2-(2,6-Diisopropylphenylsulfamoyl)-N-(2-cyclopentyl-2-phenylethyl)-acetamide] | 
25 | > 1 µM | COc1cc(OC)c(OC(=O)CS(=O)(=O)Nc2c(C(C)C)cccc2C(C)C)c(OC)c1 [Example 25, (2,6-Diisopropylphenylsulfamoyl)-acetic Acid 2,4,6-trimethoxyphenyl Ester] | -6%
26 | > 1 µM | CCCCCCCCOC(=O)CS(=O)(=O)Nc1c(C(C)C)cccc1C(C)C [Example 23, (2,6-Diisopropylphenylsulfamoyl)-acetic Acid Octyl Ester] | -4%
27 | > 5 µM | Cc1cccc(C)c1SC(=O)CS(=O)(=O)Nc1c(C(C)C)cccc1C(C)C [Example 19, (2,6-Diisopropylphenylsulfamoyl)-thioacetic Acid S-2,6-dimethylphenyl Ester] | 3%
28 | > 1 µM | CCCCCCOC(=O)CS(=O)(=O)Nc1c(C(C)C)cccc1C(C)C [Example 26, (2,6-Diisopropylphenylsulfamoyl)-acetic Acid Hexyl Ester] | -5%
29 | 17.6 µM | CC(C)c1cccc(C(C)C)c1NS(=O)(=O)CC(=O)Oc1c(C(C)C)cccc1C(C)C [Example 22, 2,6,-Diissoproplphenyl(2,6-diisopropylphenylsulfamoyl)acetate] | -7%
30 | > 5 µM | CC(C)c1cccc(C(C)C)c1NS(=O)(=O)CC(=O)Sc1c(C(C)C)cccc1C(C)C [Example 12, (2,6-Diisopropylphenylsulfamoyl)-thioacetic Acid 2,6-Diisopropylphenyl Ester] | -16%
